This note sets out measurements from patent US10526309B2, “Pan-TAM inhibitors and Mer/Axl dual inhibitors” (The University of North Carolina at Chapel Hill, priority 2015, dated 2020).

SMILES strings stand for the structures. Read-outs that look alike come from different tables or passages of the source.

Usually IC50 stands for the concentration at which inhibition is half-maximal.

What all share (assay type): biochemical
For one assay, the target named is T1, Axl (Homo sapiens, UniProt P30530).
T1 sequence (P30530 26-894): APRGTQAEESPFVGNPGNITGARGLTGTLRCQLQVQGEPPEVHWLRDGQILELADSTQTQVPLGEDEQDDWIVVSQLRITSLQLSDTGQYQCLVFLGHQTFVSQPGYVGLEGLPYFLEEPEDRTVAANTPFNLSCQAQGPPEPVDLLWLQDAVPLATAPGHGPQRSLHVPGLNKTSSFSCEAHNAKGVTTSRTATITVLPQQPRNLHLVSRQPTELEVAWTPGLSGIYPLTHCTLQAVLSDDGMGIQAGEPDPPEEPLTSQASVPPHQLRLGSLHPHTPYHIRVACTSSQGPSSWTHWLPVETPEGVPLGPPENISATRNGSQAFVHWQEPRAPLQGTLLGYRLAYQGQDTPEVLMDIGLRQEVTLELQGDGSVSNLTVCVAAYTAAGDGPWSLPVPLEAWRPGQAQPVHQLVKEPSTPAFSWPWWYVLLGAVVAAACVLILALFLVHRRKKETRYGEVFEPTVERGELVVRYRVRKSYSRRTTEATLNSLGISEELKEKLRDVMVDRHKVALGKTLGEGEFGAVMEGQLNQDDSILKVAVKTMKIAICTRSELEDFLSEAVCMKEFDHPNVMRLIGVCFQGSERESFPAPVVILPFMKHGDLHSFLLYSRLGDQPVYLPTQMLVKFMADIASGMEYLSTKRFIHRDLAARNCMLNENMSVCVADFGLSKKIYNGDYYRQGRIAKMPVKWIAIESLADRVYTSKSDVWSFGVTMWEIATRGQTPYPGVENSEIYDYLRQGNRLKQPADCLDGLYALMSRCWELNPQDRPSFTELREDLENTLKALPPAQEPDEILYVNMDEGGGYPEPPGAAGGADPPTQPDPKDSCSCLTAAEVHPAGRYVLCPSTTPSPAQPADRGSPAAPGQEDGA
The experiment in a line: Axl kinase inhibition IC50.

The target in a further assay is T2, Mer (Homo sapiens, UniProt Q12866).
T2 sequence (Q12866 21-999): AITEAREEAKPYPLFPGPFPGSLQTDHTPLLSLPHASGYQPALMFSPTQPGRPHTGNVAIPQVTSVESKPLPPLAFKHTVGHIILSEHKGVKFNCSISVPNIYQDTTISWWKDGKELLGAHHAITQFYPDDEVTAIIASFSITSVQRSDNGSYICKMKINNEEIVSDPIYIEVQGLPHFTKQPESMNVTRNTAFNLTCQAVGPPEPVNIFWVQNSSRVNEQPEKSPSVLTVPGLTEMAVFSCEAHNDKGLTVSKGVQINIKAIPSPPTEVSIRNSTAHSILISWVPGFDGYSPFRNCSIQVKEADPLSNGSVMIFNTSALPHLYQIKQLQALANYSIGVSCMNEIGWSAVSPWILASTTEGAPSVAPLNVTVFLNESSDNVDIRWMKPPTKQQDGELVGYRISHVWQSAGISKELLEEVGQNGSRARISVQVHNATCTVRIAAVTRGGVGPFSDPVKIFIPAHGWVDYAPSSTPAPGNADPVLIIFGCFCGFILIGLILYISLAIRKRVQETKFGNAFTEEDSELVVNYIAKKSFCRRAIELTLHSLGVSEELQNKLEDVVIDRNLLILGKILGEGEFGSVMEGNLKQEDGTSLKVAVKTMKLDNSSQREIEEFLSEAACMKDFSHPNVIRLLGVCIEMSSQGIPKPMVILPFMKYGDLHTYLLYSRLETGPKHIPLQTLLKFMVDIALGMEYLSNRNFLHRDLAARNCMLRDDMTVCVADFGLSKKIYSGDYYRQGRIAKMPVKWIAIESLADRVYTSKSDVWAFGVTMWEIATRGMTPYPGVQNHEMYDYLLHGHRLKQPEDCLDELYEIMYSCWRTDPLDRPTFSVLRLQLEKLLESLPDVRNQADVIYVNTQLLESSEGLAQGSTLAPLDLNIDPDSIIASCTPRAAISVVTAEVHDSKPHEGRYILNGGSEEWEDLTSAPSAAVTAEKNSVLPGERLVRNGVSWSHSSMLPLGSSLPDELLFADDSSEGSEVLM
The experiment in a line: Mer kinase inhibition IC50.

The next assay deals with T3, Tyro3 (Homo sapiens, UniProt Q06418).
T3 sequence (Q06418 41-890): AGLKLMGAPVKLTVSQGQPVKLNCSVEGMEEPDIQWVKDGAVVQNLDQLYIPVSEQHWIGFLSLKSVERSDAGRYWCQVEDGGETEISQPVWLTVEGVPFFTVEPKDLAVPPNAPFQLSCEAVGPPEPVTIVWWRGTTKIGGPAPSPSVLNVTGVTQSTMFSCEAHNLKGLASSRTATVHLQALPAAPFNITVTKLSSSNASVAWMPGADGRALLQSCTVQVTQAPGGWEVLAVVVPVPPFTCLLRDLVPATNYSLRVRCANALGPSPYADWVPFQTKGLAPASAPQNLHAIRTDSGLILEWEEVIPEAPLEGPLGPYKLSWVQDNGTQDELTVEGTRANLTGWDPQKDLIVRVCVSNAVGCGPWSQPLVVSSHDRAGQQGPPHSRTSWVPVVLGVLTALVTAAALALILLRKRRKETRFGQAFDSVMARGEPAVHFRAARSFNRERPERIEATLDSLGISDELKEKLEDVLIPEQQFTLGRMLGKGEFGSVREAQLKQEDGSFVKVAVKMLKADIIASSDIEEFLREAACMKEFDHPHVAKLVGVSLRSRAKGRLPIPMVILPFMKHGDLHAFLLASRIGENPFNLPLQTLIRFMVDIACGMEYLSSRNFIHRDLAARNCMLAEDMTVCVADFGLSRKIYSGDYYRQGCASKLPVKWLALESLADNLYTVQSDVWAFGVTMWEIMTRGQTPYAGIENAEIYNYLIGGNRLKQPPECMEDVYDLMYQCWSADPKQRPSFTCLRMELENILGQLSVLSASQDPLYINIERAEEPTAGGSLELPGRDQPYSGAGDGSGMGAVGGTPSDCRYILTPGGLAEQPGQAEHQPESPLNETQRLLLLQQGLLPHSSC
The experiment in a line: Tyro3 kinase inhibition IC50.

For the next assay, the target named is T4, FLT3 (Homo sapiens, UniProt P36888).
T4 sequence (P36888 27-993): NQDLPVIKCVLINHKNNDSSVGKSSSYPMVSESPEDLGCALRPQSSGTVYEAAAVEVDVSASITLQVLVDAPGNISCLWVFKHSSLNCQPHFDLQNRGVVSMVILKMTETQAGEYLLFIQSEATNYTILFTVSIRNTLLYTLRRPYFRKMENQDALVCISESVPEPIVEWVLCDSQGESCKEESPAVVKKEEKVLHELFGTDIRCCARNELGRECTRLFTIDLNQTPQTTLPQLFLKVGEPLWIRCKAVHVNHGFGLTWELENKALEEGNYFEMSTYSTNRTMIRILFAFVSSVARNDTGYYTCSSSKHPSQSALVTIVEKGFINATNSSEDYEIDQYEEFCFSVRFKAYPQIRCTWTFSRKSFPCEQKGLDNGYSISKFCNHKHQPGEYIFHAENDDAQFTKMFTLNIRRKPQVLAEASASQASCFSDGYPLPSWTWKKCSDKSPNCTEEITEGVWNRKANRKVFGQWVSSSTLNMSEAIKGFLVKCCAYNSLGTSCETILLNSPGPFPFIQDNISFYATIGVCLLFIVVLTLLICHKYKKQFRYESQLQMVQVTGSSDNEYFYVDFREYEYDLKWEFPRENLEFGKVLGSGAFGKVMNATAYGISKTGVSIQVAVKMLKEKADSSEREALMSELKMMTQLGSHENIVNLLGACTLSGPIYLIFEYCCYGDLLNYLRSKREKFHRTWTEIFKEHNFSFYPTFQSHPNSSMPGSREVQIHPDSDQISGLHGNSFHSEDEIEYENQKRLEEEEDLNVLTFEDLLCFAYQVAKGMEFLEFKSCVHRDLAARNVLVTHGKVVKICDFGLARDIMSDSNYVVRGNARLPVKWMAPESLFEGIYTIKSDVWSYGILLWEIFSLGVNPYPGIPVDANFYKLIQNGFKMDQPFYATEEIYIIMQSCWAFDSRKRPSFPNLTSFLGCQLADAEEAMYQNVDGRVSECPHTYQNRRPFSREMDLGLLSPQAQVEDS
The experiment in a line: FLT3 kinase inhibition IC50. The following applies: Example 6.

Take `CCCCN(C)c1ncc2c(-c3ccc(F)cc3)nn(C[C@H]3CC[C@H](N)CC3)c2n1` [UNC1653, reference compound]: the IC50 against Axl (Example 6) was determined as 7000 nM; at Mer (Example 6, read-out: MerTK IC50), 550 nM; at Tyro3 (Example 6, read-out: Tyro IC50), 15000 nM; at FLT3, 220 nM.

For `CN1CCC(c2ccc(Nc3ncc(-c4ccccn4)c(N[C@H]4CC[C@H](C)CC4)n3)cc2)CC1` [UNC5133A], the IC50 against Axl (Table 2) lay within 1000 to 30000 nM; at Mer (Table 2, read-out: Mer IC50), 100 to 1000 nM; at Tyro3 (Table 2, read-out: Tyro3 IC50), 100 to 1000 nM.

`CN1CCC(c2ccc(Nc3ncc(-c4ccccn4)c(NC4CCOCC4)n3)cc2)CC1` [UNC5134A]: the IC50 against Axl (Table 2) lay within 1000 to 30000 nM; at Mer (Table 2, read-out: Mer IC50), 100 to 1000 nM; at Tyro3 (Table 2, read-out: Tyro3 IC50), 100 to 1000 nM.

Consider `CC(C)Nc1nc(Nc2ccc(C3CCN(C)CC3)cc2)ncc1-c1ccccn1` [UNC5135A], for which the IC50 at Axl (Table 2) is 100 to 1000 nM; on Mer (Table 2, read-out: Mer IC50), 10 to 100 nM; on Tyro3 (Table 2, read-out: Tyro3 IC50), 100 to 1000 nM.

Regarding `CNc1nc(Nc2ccc(C3CCN(C)CC3)cc2)ncc1-c1ccccn1` [UNC5136A], the IC50 lay within 1000 to 30000 nM on Axl (Table 2); 1000 to 30000 nM on Mer (Table 2, read-out: Mer IC50); 1000 to 30000 nM on Tyro3 (Table 2, read-out: Tyro3 IC50).
